The source of these data is patent US4869900A, “Pharamaceutical composition containing ubidecarenone” (Zambon S.p.A., priority 1985, dated 1989).

SMILES strings stand for the structures.

The nature of data set [1]: Stability of CoQ10 in the compositions (one year at 30° C.). Format: physicochemical. The conditions noted are these: after one year at 30° C., in the compositions or pharmaceutical preparations according to the invention.
For data set [2] the following is noted: takes place through the lymphatic system; cited from earlier work.
For data set [3], the system named is cardiac affections such as cardiac deficiency, ischemic disease. The note with it: treatment of several cardiac affections such as cardiac deficiency; cited from earlier work.

In the case of `COC1=C(OC)C(=O)C(C/C=C(\C)CC/C=C(\C)CC/C=C(\C)CC/C=C(\C)CC/C=C(\C)CC/C=C(\C)CC/C=C(\C)CC/C=C(\C)CC/C=C(\C)CCC=C(C)C)=C(C)C1=O` [CoQ10, Coenzyme Q10], the “degradation of CoQ10” value in data set [1] was “no degradation”. Moreover, the absorption result in data set [2] is on record as “scarce”. Besides, the clinical effectiveness result in data set [3] was “clinically effective”.
